Measurements from US12398154B2, “Azaquinazoline pan-KRas inhibitors” (Mirati Therapeutics, Inc., priority 2020, dated 2025).

Tests used:
KRas G13D = biological target: T1, KRas G13D (Homo sapiens, UniProt P01116, G13D); experiment: KRas binding assay (TR-FRET displacement);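 note: One-hour room temperature incubation before TR-FRET reading, IC50 from a four-parameter curve fit to percent-of-control data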
T1 construct: Biotinylated KRas (corresponding to amino acids 1-169, produced at Accelegan Inc.); biotin (biotinylated); purchased Accelegan Inc
T1 sequence (P01116 1-169 isoform P01116-2 G13D): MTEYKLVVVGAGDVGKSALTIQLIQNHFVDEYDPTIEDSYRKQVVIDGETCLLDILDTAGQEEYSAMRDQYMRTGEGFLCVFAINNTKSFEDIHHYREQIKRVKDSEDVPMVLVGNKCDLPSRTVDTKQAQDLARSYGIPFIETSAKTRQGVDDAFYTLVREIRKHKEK
Method: (§1) The ability of a compound to bind to KRas was measured using a TR-FRET displacement assay. […] After a 60-minute incubation at room temperature, the reaction was measured using a BMG LABTECH CLARIO star Plus via TR-FRET. […] The POC values were fit to a 4-parameter IC50 equation and the IC50 value reported.

KRas Q61H = biological target: T2, KRas Q61H (Homo sapiens, UniProt P01116, Q61H); experiment: KRas binding assay (TR-FRET displacement);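 note: TR-FRET signal read after one hour at room temperature, IC50 derived by four-parameter fitting of percent-of-control values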
T2 construct: Biotinylated KRas (corresponding to amino acids 1-169, produced at Accelegan Inc.); biotin (biotinylated); purchased Accelegan Inc
T2 sequence (P01116 1-169 isoform P01116-2 Q61H): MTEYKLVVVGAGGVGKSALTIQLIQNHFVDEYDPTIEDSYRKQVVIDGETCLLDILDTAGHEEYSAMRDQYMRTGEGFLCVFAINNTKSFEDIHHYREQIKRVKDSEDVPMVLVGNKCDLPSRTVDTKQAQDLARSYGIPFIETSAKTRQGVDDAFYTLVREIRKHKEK
Method: as §1

KRas G12D = KRas G12D (Homo sapiens, UniProt P01116, G12D); experiment: biochemical;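 note: TR-FRET displacement binding assay on KRas, read after a one-hour incubation at room temperature, IC50 fitted from percent-of-control values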
KRas G12D, sequence (P01116 1-169 isoform P01116-2 G12D): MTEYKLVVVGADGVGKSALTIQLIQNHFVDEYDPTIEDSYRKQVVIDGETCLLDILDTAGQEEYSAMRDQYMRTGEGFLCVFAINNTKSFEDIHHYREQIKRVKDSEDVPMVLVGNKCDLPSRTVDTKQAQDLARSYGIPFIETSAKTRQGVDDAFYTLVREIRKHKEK
Method: as §1

KRas G12V = KRas G12V (Homo sapiens, UniProt P01116, G12V); experiment: biochemical;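 note: KRas binding measured by TR-FRET displacement at room temperature, IC50 fitted from percent of control values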
KRas G12V, sequence (P01116 1-169 isoform P01116-2 G12V): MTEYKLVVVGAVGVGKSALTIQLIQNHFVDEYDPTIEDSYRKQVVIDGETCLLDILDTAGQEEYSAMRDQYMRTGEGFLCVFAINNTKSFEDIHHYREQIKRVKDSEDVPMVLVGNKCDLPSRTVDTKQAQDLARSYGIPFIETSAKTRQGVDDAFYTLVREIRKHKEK
Method: as §1

KRas G12R = KRas G12R (Homo sapiens, UniProt P01116, G12R); experiment: biochemical;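 note: TR-FRET displacement assay of compound binding to KRas, read after one hour at room temperature, potency from a four-parameter fit of percent-of-control values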
KRas G12R, sequence (P01116 1-169 isoform P01116-2 G12R): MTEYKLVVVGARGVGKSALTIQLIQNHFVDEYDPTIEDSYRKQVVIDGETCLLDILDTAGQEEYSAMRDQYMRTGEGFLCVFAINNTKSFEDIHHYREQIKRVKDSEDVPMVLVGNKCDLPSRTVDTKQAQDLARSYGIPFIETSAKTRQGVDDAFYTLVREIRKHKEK
Method: as §1

KRas G12A = KRas G12A (Homo sapiens, UniProt P01116, G12A); experiment: biochemical;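 note: binding to KRas measured by TR-FRET displacement after one hour at room temperature, IC50 from a four-parameter fit of percent-of-control values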
KRas G12A, sequence (P01116 1-169 isoform P01116-2 G12A): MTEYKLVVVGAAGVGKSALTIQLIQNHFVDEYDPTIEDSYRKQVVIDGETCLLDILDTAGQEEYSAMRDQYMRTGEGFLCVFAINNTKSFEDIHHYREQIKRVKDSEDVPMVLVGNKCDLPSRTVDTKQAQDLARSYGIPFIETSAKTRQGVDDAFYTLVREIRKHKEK
Method: as §1

KRas G12S = KRas G12S (Homo sapiens, UniProt P01116, G12S); experiment: biochemical;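 note: TR-FRET displacement binding to KRas, read after one hour incubation at room temperature, IC50 from four-parameter fit of percent of control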
KRas G12S, sequence (P01116 1-169 isoform P01116-2 G12S): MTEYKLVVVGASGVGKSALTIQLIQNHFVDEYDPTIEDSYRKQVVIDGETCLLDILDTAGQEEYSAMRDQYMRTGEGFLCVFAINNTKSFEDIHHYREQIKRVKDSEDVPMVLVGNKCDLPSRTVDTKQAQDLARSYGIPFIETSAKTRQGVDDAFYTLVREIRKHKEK
Method: as §1

KRas G12C = KRas G12C (Homo sapiens, UniProt P01116, G12C); experiment: biochemical;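 note: binding to KRas assessed by TR-FRET displacement after one hour incubation at room temperature, potency fitted from percent-of-control values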
KRas G12C, sequence (P01116 1-169 isoform P01116-2 G12C): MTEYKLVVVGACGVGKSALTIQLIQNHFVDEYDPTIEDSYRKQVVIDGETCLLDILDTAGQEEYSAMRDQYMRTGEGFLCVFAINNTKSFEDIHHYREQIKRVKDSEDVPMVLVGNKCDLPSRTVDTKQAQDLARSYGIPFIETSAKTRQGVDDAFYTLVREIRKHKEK
Method: as §1

KRas WT = KRas WT (Homo sapiens, UniProt P01116); experiment: biochemical;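 note: binding to KRas read as TR-FRET displacement after a one-hour room-temperature incubation, IC50 derived from percent-of-control values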
KRas WT, sequence (P01116 1-169 isoform P01116-2): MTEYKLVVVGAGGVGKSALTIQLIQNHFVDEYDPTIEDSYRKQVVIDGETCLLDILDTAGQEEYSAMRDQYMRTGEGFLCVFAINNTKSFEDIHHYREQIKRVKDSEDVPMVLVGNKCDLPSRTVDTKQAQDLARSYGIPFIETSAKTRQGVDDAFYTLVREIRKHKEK
Method: as §1

pERK in MKN1 cells = experiment: Inhibition of KRas phosphorylation of ERK (Cisbio HTRF pERK assay); settings: Homo sapiens, MKN-1, 3 h, read-out: Inhibition (HTRF IC50) of KRas-mediated Phosphorylation of ERK, MKN1
pERK in PSN1 cells = experiment: as above; settings: Homo sapiens, PSN1, 3 h, read-out: Inhibition (HTRF IC50) of KRas-mediated Phosphorylation of ERK, PSN1
pERK in ASPC1 cells = experiment: as above; settings: Homo sapiens, ASPC1, read-out: Inhibition (HTRF IC50) of KRas-mediated Phosphorylation of ERK, AsPC-1
Method: To harvest cells from flask using 0.05% Trypsin/EDTA solution. Add 10 mL of media to stop trypsinizing. Pipette the cells into a conical bottom 50 mL centrifuge tube and centrifuge 5 min×1000 rpm. • 2. Re-suspend the cell pellet in media, take a cell count, and then adjust the cell density using fresh media. • 3. Seed 6,000 cells into cell culture plate with 50 μL media. […] Incubate cell plate overnight in a 37° C., 5% CO2 incubator. • Compound titrations • 1. Use Tecan to complete the compound addition. Compounds start from 10 uM top, 3-fold dilution, and 10 doses. The final DMSO concentration is 0.8%. Dispensed 0.2 uM Trametinib as Min control. • 2. Incubate cell plate for 3 hrs in the incubator. • Detection with cisbio pERK HTRF kit • 1. […] At the end of the compound treatment, flick-off the media. • 3. Add 35 μL of lysis buffer per well using a Multidrop Combi. Then place on a plate agitator shaking at 300 rpm at 4° C. for 40 mins. • 4. Make up the HTRF antibody buffer. For each assay plate, mix 50 μL of d2-conjugate antibody with 950 μL of detection buffer. Similarly, mix 50 μL of Cryptate antibody with 950 μL of detection buffer. Then mix the two diluted antibodies together. • 5. Dispense 3.4 μL the antibody buffer to wells of an empty assay plate. Seal the plate and centrifuge plate 30 sec×1000 rpm. • 6. At the end of the 4° C. lysis, centrifuge the lysate plates 3 mins×1500 rpm. • 7. Use the Bravo to transfer 13.6 μL of lysate from cell culture plate to assay plate.
Then incubate assay plate for 2 hrs at room temperature. […] At the end of incubation, read plate on the Envision after centrifuging plate 30 sec× • 1000 rpm.

pERK in H727 cells = experiment: as above; settings: Homo sapiens, NCI-H727, read-out: Inhibition (HTRF IC50) of KRas-mediated Phosphorylation of ERK, H727
pERK in H460 cells = experiment: as above; settings: Homo sapiens, NCI-H460, read-out: Inhibition (HTRF IC50) of KRas-mediated Phosphorylation of ERK, H460
pERK in HCT116 cells = experiment: as above; settings: Homo sapiens, HCT-116, read-out: Inhibition (HTRF IC50) of KRas-mediated Phosphorylation of ERK, HCT116

Row | SMILES | IC50 (KRas G13D) | IC50 (KRas Q61H) | IC50 (KRas G12D) | IC50 (KRas G12V) | IC50 (KRas G12R) | IC50 (KRas G12A) | IC50 (KRas G12S) | IC50 (KRas G12C) | IC50 (KRas WT) | IC50 (pERK in MKN1 cells) | IC50 (pERK in PSN1 cells) | IC50 (pERK in ASPC1 cells) | IC50 (pERK in H727 cells) | IC50 (pERK in H460 cells) | IC50 (pERK in HCT116 cells)
1 | CNC(=O)c1cc2n(n1)CCCN(c1nc(OCC34CCCN3CCC4)nc3c(F)c(-c4cccc5cccc(F)c45)ncc13)C2 [Example 259, 5-(8-fluoro-7-(8-fluoronaphthalen-1-yl)-2-((hexahydro-1H-pyrrolizin-7a-yl)methoxy)pyrido[4,3-d]pyrimidin-4-yl)-N-methyl-5,6,7,8-tetrahydro-4H-pyrazolo[1,5-a][1,4]diazepine-2-carboxamide] | 3300 nM | 3180 nM | 158 nM | 380 nM | 769 nM | 1520 nM | 649 nM | 825 nM | 2210 nM | – | – | – | – | – | –
2 | CN(C)C(=O)c1cc2n(n1)CCCN(c1nc(OCC34CCCN3CCC4)nc3c(F)c(-c4cccc5cccc(F)c45)ncc13)C2 [Example 260, 5-(8-fluoro-7-(8-fluoronaphthalen-1-yl)-2-((hexahydro-1H-pyrrolizin-7a-yl)methoxy)pyrido[4,3-d]pyrimidin-4-yl)-N,N-dimethyl-5,6,7,8-tetrahydro-4H-pyrazolo[1,5-a][1,4]diazepine-2-carboxamide] | 1170 nM | 1060 nM | 61 nM | 204 nM | 455 nM | 294 nM | 419 nM | 591 nM | 864 nM | – | – | – | – | – | –
3 | OCc1cc2n(n1)CCCN(c1nc(OCC34CCCN3CCC4)nc3c(F)c(-c4cccc5cccc(F)c45)ncc13)C2 [Example 261, (5-(8-fluoro-7-(8-fluoronaphthalen-1-yl)-2-((hexahydro-1H-pyrrolizin-7a-yl)methoxy)pyrido[4,3-d]pyrimidin-4-yl)-5,6,7,8-tetrahydro-4H-pyrazolo[1,5-a][1,4]diazepin-2-yl)methanol] | 9610 nM | 10700 nM | 1610 nM | 3980 nM | 2610 nM | 5740 nM | 2320 nM | 2390 nM | 7100 nM | – | – | – | – | – | –
4 | CCc1c(F)ccc2cc(O)cc(-c3ncc4c(N5CCCCC(O)C5)nc(OC[C@@]56CCCN5C[C@H](F)C6)nc4c3F)c12 (stereo partly drawn) [Example 347, 1-(7-(8-ethyl-7-fluoro-3-hydroxynaphthalen-1-yl)-8-fluoro-2-(((2R,7aS)-2-fluorohexahydro-1H-pyrrolizin-7a-yl)methoxy)pyrido[4,3-d]pyrimidin-4-yl)azepan-3-ol] | – | – | 3 nM | 3 nM | 3 nM | – | – | – | – | 98 nM | 4460 nM | 118 nM | 73 nM | 127 nM | 195 nM
5 | O=C1C[C@]2(CCCN(c3nc(OC[C@@]45CCCN4C[C@H](F)C5)nc4c(F)c(-c5cc(O)cc6ccc(F)c(Cl)c56)ncc34)C2)N1 [Example 416, (S)-6-(7-(8-chloro-7-fluoro-3-hydroxynaphthalen-1-yl)-8-fluoro-2-(((2R,7aS)-2-fluorohexahydro-1H-pyrrolizin-7a-yl)methoxy)pyrido[4,3-d]pyrimidin-4-yl)-1,6-diazaspiro[3.5]nonan-2-one] | – | – | ≤ 2 nM | ≤ 2 nM | ≤ 2 nM | – | – | – | – | 3 nM | 1300 nM | 141 nM | 83 nM | 283 nM | 2190 nM
6 | O=S1(=O)NCC2(CCCN(c3nc(OC[C@@]45CCCN4C[C@H](F)C5)nc4c(F)c(-c5cc(O)cc6ccc(F)c(Cl)c56)ncc34)C2)N1 (stereo partly drawn) [Example 417, 7-(7-(8-chloro-7-fluoro-3-hydroxynaphthalen-1-yl)-8-fluoro-2-(((2R,7aS)-2-fluorohexahydro-1H-pyrrolizin-7a-yl)methoxy)pyrido[4,3-d]pyrimidin-4-yl)-2-thia-1,3,7-triazaspiro[4.5]decan 2,2-dioxide] | – | – | ≤ 2 nM | ≤ 2 nM | ≤ 2 nM | – | – | ≤ 2 nM | ≤ 2 nM | 20 nM | 110 nM | 182 nM | 57 nM | 63 nM | 79 nM

Next, values leading:

Row | IC50 (KRas G13D) | IC50 (KRas Q61H) | IC50 (KRas G12D) | IC50 (KRas G12V) | IC50 (KRas G12R) | IC50 (KRas G12A) | IC50 (KRas G12S) | IC50 (KRas G12C) | IC50 (KRas WT) | IC50 (pERK in MKN1 cells) | IC50 (pERK in PSN1 cells) | IC50 (pERK in ASPC1 cells) | IC50 (pERK in H727 cells) | IC50 (pERK in H460 cells) | IC50 (pERK in HCT116 cells) | SMILES
7 | – | – | 7 nM | ≤ 2 nM | 5 nM | – | – | – | – | 26 nM | 1810 nM | 430 nM | 112 nM | 303 nM | 539 nM | Oc1cc(-c2ncc3c(N4CC5CC(O)CC4C5)nc(OC[C@@]45CCCN4C[C@H](F)C5)nc3c2F)c2c(Cl)c(F)ccc2c1 (stereo partly drawn) [Example 422, 6-(7-(8-chloro-7-fluoro-3-hydroxynaphthalen-1-yl)-8-fluoro-2-(((2R,7aS)-2-fluorohexahydro-1H-pyrrolizin-7a-yl)methoxy)pyrido[4,3-d]pyrimidin-4-yl)-6-azabicyclo[3.2.1]octan-3-ol]
8 | – | – | 5 nM | 4 nM | 12 nM | – | – | – | – | 328 nM | ≥ 10000 nM | 203 nM | 115 nM | 987 nM | – | CCc1c(F)ccc2cc(O)cc(-c3ncc4c(N5CCCc6nn(C(=O)NC(C)C)cc6C5)nc(OC[C@@]56CCCN5C[C@H](F)C6)nc4c3F)c12 [Example 479, 5-(7-(8-ethyl-7-fluoro-3-hydroxynaphthalen-1-yl)-8-fluoro-2-(((2R,7aS)-2-fluorohexahydro-1H-pyrrolizin-7a-yl)methoxy)pyrido[4,3-d]pyrimidin-4-yl)-N-isopropyl-5,6,7,8-tetrahydropyrazolo[4,3-c]azepine-2(4H)-carboxamide]
9 | – | – | 4 nM | 4 nM | 7 nM | – | – | – | – | 49 nM | 5410 nM | 387 nM | 643 nM | 827 nM | 3150 nM | CCc1c(F)ccc2cc(O)cc(-c3ncc4c(N5CCCC6(C5)CS(=O)(=O)C6)nc(OC[C@@]56CCCN5C[C@H](F)C6)nc4c3F)c12 [Example 481, 6-(7-(8-ethyl-7-fluoro-3-hydroxynaphthalen-1-yl)-8-fluoro-2-(((2R,7aS)-2-fluorohexahydro-1H-pyrrolizin-7a-yl)methoxy)pyrido[4,3-d]pyrimidin-4-yl)-2-thia-6-azaspiro[3.5]nonane 2,2-dioxide]
10 | – | – | ≤ 2 nM | ≤ 2 nM | ≤ 2 nM | – | – | – | – | 83 nM | ≥ 10000 nM | 890 nM | 339 nM | 1590 nM | – | CCc1c(F)ccc2cc(O)cc(-c3ncc4c(NCc5cc(C(=O)N(C)C)nn5C)nc(OC[C@@]56CCCN5C[C@H](F)C6)nc4c3F)c12 [Example 483, 5-(((7-(8-ethyl-7-fluoro-3-hydroxynaphthalen-1-yl)-8-fluoro-2-(((2R,7aS)-2-fluorotetrahydro-1H-pyrrolizin-7a(5H)-yl)methoxy)pyrido[4,3-d]pyrimidin-4-yl)amino)methyl)-N,N,1-trimethyl-1H-pyrazole-3-carboxamide]
11 | – | – | 3 nM | ≤ 2 nM | ≤ 2 nM | – | – | – | – | 135 nM | ≥ 10000 nM | 354 nM | 795 nM | 982 nM | 2170 nM | CCc1c(F)ccc2cc(O)cc(-c3ncc4c(NCC5CNS(=O)(=O)N5)nc(OC[C@@]56CCCN5C[C@H](F)C6)nc4c3F)c12 (stereo partly drawn) [Example 494, 3-(((7-(8-ethyl-7-fluoro-3-hydroxynaphthalen-1-yl)-8-fluoro-2-(((2R,7aS)-2-fluorohexahydro-1H-pyrrolizin-7a-yl)methoxy)pyrido[4,3-d]pyrimidin-4-yl)amino)methyl)-1,2,5-thiadiazolidine 1,1-dioxide]
12 | – | – | ≤ 2 nM | ≤ 2 nM | ≤ 2 nM | – | – | – | – | 703 nM | ≥ 10000 nM | 302 nM | 2220 nM | 8910 nM | ≥ 10000 nM | CCc1c(F)ccc2cc(O)cc(-c3ncc4c(N5CCCn6nc(C(=O)NCCO)cc6C5)nc(OC[C@@]56CCCN5C[C@H](F)C6)nc4c3F)c12 [Example 506, 5-(7-(8-ethyl-7-fluoro-3-hydroxynaphthalen-1-yl)-8-fluoro-2-(((2R,7aS)-2-fluorotetrahydro-1H-pyrrolizin-7a(5H)-yl)methoxy)pyrido[4,3-d]pyrimidin-4-yl)-N-(2-hydroxyethyl)-5,6,7,8-tetrahydro-4H-pyrazolo[1,5-a][1,4]diazepine-2-carboxamide]
